Results on nine compounds are retold here after ChEMBL document CHEMBL1781982, “Evaluation of antioxidant and antimicrobial activities of Bergenin and its derivatives obtained by chemoenzymatic synthesis” (Eur J Med Chem, 2011).

Active and inactive are the calls of the source. The rule behind the calls is not given here.

Data set [1] concerns Radical scavenging activity. Nature of the data set: Antioxidant activity assessed as DPPH free radical scavenging activity at 200 to 1000 uM after 5 mins. In kind it is functional. A general note: DPPH is a stable violet radical that fades when it is reduced.
In data set [2] the test system is Bacillus subtilis. Nature of the data set: Antibacterial activity against Bacillus subtilis MTCC 441 at 2000 ug/ml after 24 hrs by agar-well diffusion method. In kind it is functional. The following applies: MTCC 441, 24 h, read-out: DIZ. In general terms: Agar diffusion results depend on both activity and mobility in agar.
Data set [3] concerns Escherichia coli. Description: Antibacterial activity against Escherichia coli MTCC 739 at 2000 ug/ml after 24 hrs by agar-well diffusion method. In kind it is functional. The settings on record: MTCC 739, 24 h, read-out: DIZ.
The test system of data set [4] is Klebsiella pneumoniae. Description: Antibacterial activity against Klebsiella pneumoniae MTCC 139 at 2000 ug/ml after 24 hrs by agar-well diffusion method. The settings on record: MTCC 139, 24 h, read-out: DIZ. In kind it is functional.
For data set [5], the system named is Staphylococcus aureus. Description: Antibacterial activity against Staphylococcus aureus MTCC 2940 at 2000 ug/ml after 24 hrs by agar-well diffusion method. In kind it is functional. The settings on record: MTCC 2940, 24 h, read-out: DIZ.
Data set [6] concerns the target Xanthine dehydrogenase/oxidase (Homo sapiens, UniProt P47989). Description: Inhibition of xanthine oxidase assessed as reduction of uric acid production from xanthine at 10 to 50 uM preincubated for 15 mins measured after 30 mins by spectrophotometry. The settings on record: 0.5 h.
Data set [7] relates to Staphylococcus aureus. Nature of the data set: Antibacterial activity against Staphylococcus aureus MTCC 2940 at 30 ug/disc after 24 hrs. The settings on record: MTCC 2940, 24 h, read-out: DIZ. In kind it is functional.
For data set [8], the system named is Bacillus subtilis. Description: Antibacterial activity against Bacillus subtilis MTCC 441 at 30 ug/disc after 24 hrs. It is filed as functional. The following applies: MTCC 441, 24 h, read-out: DIZ.
The subject of data set [9] is Klebsiella pneumoniae. Nature of the data set: Antibacterial activity against Klebsiella pneumoniae MTCC 139 at 30 ug/disc after 24 hrs. It is filed as functional. The following applies: MTCC 139, 24 h, read-out: DIZ.
Data set [10] relates to Escherichia coli. Nature of the data set: Antibacterial activity against Escherichia coli MTCC 739 at 30 ug/disc after 24 hrs. It is filed as functional. The settings on record: MTCC 739, 24 h, read-out: DIZ.

Xanthine dehydrogenase/oxidase, sequence (P47989 whole entry): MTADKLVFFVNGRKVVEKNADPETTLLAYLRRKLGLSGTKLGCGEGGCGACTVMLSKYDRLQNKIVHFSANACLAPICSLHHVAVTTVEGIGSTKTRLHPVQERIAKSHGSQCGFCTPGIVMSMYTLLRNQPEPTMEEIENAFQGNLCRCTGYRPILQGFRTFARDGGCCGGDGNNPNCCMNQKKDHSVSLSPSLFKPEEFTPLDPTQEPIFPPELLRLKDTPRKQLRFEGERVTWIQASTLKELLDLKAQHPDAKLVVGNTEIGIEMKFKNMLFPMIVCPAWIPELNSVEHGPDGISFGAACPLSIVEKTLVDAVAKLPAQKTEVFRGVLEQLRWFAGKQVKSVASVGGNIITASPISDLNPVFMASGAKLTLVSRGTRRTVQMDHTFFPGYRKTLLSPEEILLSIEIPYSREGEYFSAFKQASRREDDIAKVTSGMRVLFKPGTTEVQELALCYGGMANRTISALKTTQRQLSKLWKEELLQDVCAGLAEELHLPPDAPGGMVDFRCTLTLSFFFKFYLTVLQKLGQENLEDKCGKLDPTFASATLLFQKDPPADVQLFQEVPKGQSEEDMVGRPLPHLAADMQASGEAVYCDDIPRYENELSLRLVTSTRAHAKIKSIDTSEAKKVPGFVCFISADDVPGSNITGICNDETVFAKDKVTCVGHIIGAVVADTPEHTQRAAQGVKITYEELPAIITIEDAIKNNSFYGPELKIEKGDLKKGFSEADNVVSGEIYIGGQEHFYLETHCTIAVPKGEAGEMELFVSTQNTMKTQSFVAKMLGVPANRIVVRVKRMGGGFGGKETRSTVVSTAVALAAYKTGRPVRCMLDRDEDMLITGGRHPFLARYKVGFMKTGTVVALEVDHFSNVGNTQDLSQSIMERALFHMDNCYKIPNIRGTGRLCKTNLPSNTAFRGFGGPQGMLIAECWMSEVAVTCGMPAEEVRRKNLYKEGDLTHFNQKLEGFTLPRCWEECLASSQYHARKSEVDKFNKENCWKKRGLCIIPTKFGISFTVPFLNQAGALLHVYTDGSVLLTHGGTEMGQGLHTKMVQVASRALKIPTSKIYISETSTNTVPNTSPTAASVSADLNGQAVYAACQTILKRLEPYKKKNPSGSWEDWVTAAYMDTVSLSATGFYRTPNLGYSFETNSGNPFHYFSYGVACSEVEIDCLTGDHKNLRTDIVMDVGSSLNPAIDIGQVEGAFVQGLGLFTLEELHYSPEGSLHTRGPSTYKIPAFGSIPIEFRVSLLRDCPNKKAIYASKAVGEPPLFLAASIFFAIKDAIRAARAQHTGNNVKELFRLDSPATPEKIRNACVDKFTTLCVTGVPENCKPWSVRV

In the case of `CCCCCC(=O)Oc1cc2c(c(OC(C)=O)c1OC)[C@@H]1O[C@H](COC(C)=O)[C@@H](OC(C)=O)[C@H](OC(C)=O)[C@H]1OC2=O`, in [1], the result was Active. Also, the zone of inhibition at 2000 µg/mL stood at 7.4 mm in [2], 21.4 mm in data set [3], 5.4 mm in [4] and 6.4 mm in data set [5]. Further, the “inhibition (INH)” value in data set [6] was “Not Active”.

Consider `COc1c(OC(C)=O)cc2c(c1OC(C)=O)[C@@H]1O[C@H](COC(C)=O)[C@@H](OC(C)=O)[C@H](OC(C)=O)[C@H]1OC2=O` [BERGENIN PENTAACETATE], for which the result in data set [1] was Active. For the same compound, the zone of inhibition at 2000 µg/mL in data set [2] was found to be 5.2 mm; in data set [3], 16.2 mm; in data set [4] it was 5.1 mm; in data set [5], 8.3 mm.

Take `COc1c(O)cc2c(c1O)[C@@H]1O[C@H](CO)[C@@H](O)[C@H](O)[C@H]1OC2=O` [BERGENIN]: the result in [1] was Active. For the same compound, the zone of inhibition at 2000 µg/mL in data set [2] is 1.3 mm; in data set [3], 3.3 mm; in data set [4] it was 2.5 mm; in data set [5], 2.1 mm. Besides, the “inhibition (INH)” value in data set [6] was “Not Active”.

Consider `O=c1c(O)c(-c2ccc(O)c(O)c2)oc2cc(O)cc(O)c12` [QUERCETIN], for which the “inhibition (INH)” value in data set [6] is “Active”.

Take `COc1c(OC(=O)c2ccccc2)cc2c(c1OC(C)=O)[C@@H]1O[C@H](COC(C)=O)[C@@H](OC(C)=O)[C@H](OC(C)=O)[C@H]1OC2=O`: the outcome in [1] was Active. The zone of inhibition at 2000 µg/mL in [2] amounted to 4.3 mm; in data set [3], 9.3 mm; in [4], 6.3 mm; in data set [5], 5.5 mm. The “inhibition (INH)” value in [6] is given as “Not Active”.

As to `NC[C@H]1O[C@H](O[C@H]2[C@H](O)[C@@H](O[C@H]3O[C@H](CO)[C@@H](O)[C@H](N)[C@H]3O)[C@H](N)C[C@@H]2N)[C@H](O)[C@@H](O)[C@@H]1O` [KANAMYCIN], the zone of inhibition at 30 µg/disc is 25.1 mm in data set [7], 23.2 mm in [8], 19.5 mm in data set [9] and 18 mm in [10].

As to `CCCCCCCCCCCCCC(=O)Oc1cc2c(c(OC(C)=O)c1OC)[C@@H]1O[C@H](COC(C)=O)[C@@H](OC(C)=O)[C@H](OC(C)=O)[C@H]1OC2=O`, the outcome in data set [1] was Active. Also, the zone of inhibition at 2000 µg/mL in data set [2] was determined as 2.2 mm; in data set [3], 5.4 mm; in data set [4], 3.1 mm; in [5] it was 2.4 mm. In data set [6], the “inhibition (INH)” value is “Not Active”.

As to `CCCCCCCCCC(=O)Oc1cc2c(c(OC(C)=O)c1OC)[C@@H]1O[C@H](COC(C)=O)[C@@H](OC(C)=O)[C@H](OC(C)=O)[C@H]1OC2=O`, in data set [1], the outcome was Active. The zone of inhibition at 2000 µg/mL in [2] stood at 3.9 mm; in data set [3] it was 6.2 mm; in data set [4], 4.2 mm; in [5], 3.2 mm. Besides, in data set [6], the “inhibition (INH)” value was “Not Active”.

Consider `COc1c(O)cc2c(c1OC(C)=O)[C@@H]1O[C@H](COC(C)=O)[C@@H](OC(C)=O)[C@H](OC(C)=O)[C@H]1OC2=O`, for which the outcome in [1] was Active. The zone of inhibition at 2000 µg/mL was found to be 4.3 mm in [2], 14.1 mm in data set [3], 3.3 mm in [4] and 3.2 mm in [5].
